The values below come from patent US12161621B2, “Methods for fructokinase mediation of alcohol craving and alcohol induced liver disease” (REGENTS OF THE UNIVERSITY OF COLORADO, A BODY CORPORATE, priority 2018, dated 2024).

The test system of the test is wild type mice. Briefly: two-bottle choice alcohol preference with fructokinase inhibitor. In kind it is in vivo. The conditions noted are these: wild type mice on 10 percent alcohol vs water, fructokinase inhibitor administered for 4 weeks, FIG. 2G. The text has this: FIG. 2C provides delta FosB expression and densitometry in nucleus accumbens (Nacc) of wild type mice exposed to 0%, 3%, 6% and 10% alcohol for 10 weeks. FIG. 2D includes delta FosB expression and densitometry in nucleus accumbens (Nacc) of wild type and fructokinase knockout mice exposed to 10% alcohol for 10 weeks. […] FIG. 2F provides evidence of conditioned place preference in wild type and fructokinase knockout mice injected alcohol (2 g/kg). Data represents preference shifts for the paired section after vs before conditioning (time spent in the paired chamber posttest-pretest). […] One Way ANOVA with Tukey post hoc analysis; n=5 mice per group. Further evidence that KHK may mediate alcohol preference is shown by a conditioned place preference study, in which mice are injected with either alcohol or saline then placed in a distinctly different section of the apparatus for 4 alcohol and 4 saline trials. The mice were then tested in an alcohol-free state to determine whether they preferred the section of the apparatus that was paired with alcohol. […] It was also determined that preference for alcohol could be blocked by administering a fructokinase inhibitor (i.e., osthol) for 4 weeks to wild type mice on 10 percent alcohol. […] Thus, these studies show the novel finding that blocking fructokinase can block the craving for alcohol.

`COc1ccc2ccc(=O)oc2c1CC=C(C)C` [osthol]: the “reduced preference for alcohol in a two bottle preference system” value is listed as 50%.
